Test results taken from patent publication US20080255121A1, “Combination Drug for Treating Autoimmune Disease” (DAINIPPON SUMITOMO PHARMA CO., LTD., priority 2004, published 2008).

Columns and labels:
IκBα = assay: Degradation of IκBα in stimulated T-lymphocytes (Western blotting); assay type: cell-based, mouse; settings: Compound (I) 30 μM, KN-93 10 μM; EL-4 cells; FIG. 17
Description: Effects of Compound (I) and KN-93 on the degradation of IκBα when T-lymphocytes were stimulated with Phorbol 12-myristate 13-acetate (PMA) and Calcium Ionophore A23187 were evaluated.
EL-4 cells (mouse T-lymphocyte cell line) were cultured in Dulbecco's Modified Eagle Medium (DMEM: GIBCO, Inc.) containing 10% fetal bovine serum and subjected to the experiments. Cells subconfluently multiplied were collected by centrifugation and dispensed into Eppendorf tubes to be contained at 5×10^6 cells/tube. After Compound (I) (final 30 μM) or KN-93 (final 10 μM) was added and preincubated at 37° C. in a water bath, stimulation by PMA (final 125 ng/ml) and A23187 (final 1 μg/ml) was performed (total volume 500 μl). After incubated for 15 minutes or 30 minutes after the stimulation, 1 ml of an ice cold stop solution (1×PBS, 1 mM Na3VO4, 5 mM EDTA) was added to terminate the reaction. After centrifugation and rinsing, it was dissolved in TNE buffer (50 mMTris-HCl, 1% NP-40, 20 mM EDTA, 100 μg/ml PMSF, 30 μl/ml Aprotinin, 1 mM Na3VO4, 5 mM NaF, 12 mM β-glycerophosphate). After performing 12% SDS-PAGE, proteins were transferred onto a PVDF membrane and western blotting was performed with anti-IκBα antibody (C-21, Santa Cruz, Inc.).

EL-4 cells = assay: IL-2 production when T-lymphocytes were stimulated with PMA and A23187; assay type: cell-based, mouse; settings: Compound (I) 1 to 30 μM, KN-93 1 to 10 μM; 20 hours; FIG. 1
Description: Effects of Compound (I) and KN-93 on IL-2 production when T-lymphocytes were stimulated with Phorbol 12-myristate 13-acetate (PMA) and Calcium Ionophore A23187 were evaluated.
EL-4 cells (mouse T-lymphocyte cell line) were cultured in Dulbecco's Modified Eagle Medium (DMEM: GIBCO, Inc.) containing 10% fetal bovine serum and subjected to the experiment. The cells were disseminated in 96-well plate in a ratio of 5×10^4 cells/well and a DMEM medium containing the test substance and a DMEM medium containing PMA and A23187 as a stimulant were added and incubated for 20 hours. The concentration was adjusted so that the final concentrations of the test substances and stimulants were 1 to 30 μM for Compound (I), 1 to 10 μM for KN-93, 25 ng/ml for PMA and 250 ng/ml for A23187. The plate was centrifuged after incubation and the supernatant was collected with micropipette. The concentration of IL-2 in the supernatant was quantified by Enzyme-linked Immunosorbent Assay (ELISA) method. The quantitative method was carried out in accordance with the instructions attached to the kit (MOUSE IL-2 Immunoassay, R & D Systems).

CaMKIIα derived from rat = biological target: T1, CaMKIIα derived from rat (Rattus norvegicus, UniProt P11275); assay: Examination of CaMKII inhibitory activity (1), phosphorylation of Autocamtide-2; assay type: biochemical
T1 construct: purchased Santa Cruz, Inc
Description: Test substances were dissolved in DMSO and diluted to various concentrations with a buffer solution (50 mM Tris-HCl: pH 7.5, 10 mM MgCl2, 1 mM Dithiothreitol (DTT)) (all of them are available from Nacalai Tesque, Inc.) for CaMKII reaction. CaMKIIα (final concentration 0.75 μg/ml) (Santa Cruz, Inc.) derived from rat was mixed with Autocamtide-2® (40 μM) (CALBIOCHEM Company) dissolved in CaMKII reaction buffer solution in the presence of the test substance and with CaMKII activation buffer solution (1 mMCaCl2, 1 μM calmodulin) (Nacalai Tesque, Inc.) and the reaction was started by further adding ATP (50 μM) (Nacalai Tesque, Inc.). The reaction was performed at 30° C. for five minutes and then SDS-PAGE sample buffer solution was added and the reaction was terminated by boiling for five minutes. Proteins in the reaction mixture were separated by 15% SDS-PAGE and blotted onto a PVDF membrane. Phosphorus taken in by Autocamtide-2 was reacted with an anti-phosphorylated serine/threonine antibody (Santa Cruz, Inc.) and quantified by ECL system (Amersham, Inc.) and NIH Image (downloadable from http://rsb.info.nih.gov/nih-image/).

osteoclasts = assay: Formation of osteoclasts from cells of collagen arthritis mouse leg (TRAP staining); assay type: cell-based; settings: Compound (I) 0.5 to 20 μM, KN-93 0.3 to 5 μM; nine days; FIG. 5
Description: Effects of Compound (I) and KN-93 on the formation of osteoclasts were evaluated.
A mouse leg affected with developed collagen arthritis was removed and treated in an α-MEM culture medium (GIBCO, Inc.) containing 10% fetal bovine serum in the presence of dispase (Godo Shuzo) and collagenase S1 (Nitta Gelatin Inc.) at 37° C. for five to six hours and monodisperse cell suspended liquid was collected. This sample was centrifuged, rinsed by resuspension and subjected to the experiment. The cells were disseminated in 96-well plate in a ratio of 2×10^4 cells/well, an α-MEM medium containing the test compound was added thereto and incubated for nine days. After the incubation, osteoclasts were stained with a kit (Sigma, Inc.) for TRAP staining and the number of the osteoclasts per well was measured by microscopic observation. The TRAP staining was carried out in accordance with instructions attached to the kit.

J774A.1 cells = assay: IL-6 production when macrophages were stimulated with LPS; assay type: cell-based, mouse; settings: Compound (I) 1 to 30 μM, KN-93 1 to 3 μM; 24 hours; FIG. 2
Description: Effects of Compound (I) and KN-93 on IL-6 production when macrophages were stimulated with lipopolysaccharide (LPS) were evaluated.
J774A.1 cells (mouse macrophage cell line) were cultured in Dulbecco's Modified Eagle Medium (DMEM: GIBCO, Inc.) containing 10% fetal bovine serum and subjected to the experiment. The cells were disseminated in 96-well plate in a ratio of 5×10^4 cells/well and a DMEM medium containing the test substance and a DMEM medium containing LPS as a stimulant were added and incubated for 24 hours. The concentration was adjusted so that the final concentrations of the test substances and stimulants were 1 to 30 μM for Compound (I), 1 to 3 μM for KN-93 and 1 μg/ml for LPS. The plate was centrifuged after incubation and the supernatant was collected with micropipette. The concentration of IL-6 in the supernatant was quantified by Enzyme-linked Immunosorbent Assay (ELISA) method. The quantitative method was carried out in accordance with the instructions attached to the kit (MOUSE IL-6 Immunoassay, R & D Systems).

T1 sequence (P11275 whole entry): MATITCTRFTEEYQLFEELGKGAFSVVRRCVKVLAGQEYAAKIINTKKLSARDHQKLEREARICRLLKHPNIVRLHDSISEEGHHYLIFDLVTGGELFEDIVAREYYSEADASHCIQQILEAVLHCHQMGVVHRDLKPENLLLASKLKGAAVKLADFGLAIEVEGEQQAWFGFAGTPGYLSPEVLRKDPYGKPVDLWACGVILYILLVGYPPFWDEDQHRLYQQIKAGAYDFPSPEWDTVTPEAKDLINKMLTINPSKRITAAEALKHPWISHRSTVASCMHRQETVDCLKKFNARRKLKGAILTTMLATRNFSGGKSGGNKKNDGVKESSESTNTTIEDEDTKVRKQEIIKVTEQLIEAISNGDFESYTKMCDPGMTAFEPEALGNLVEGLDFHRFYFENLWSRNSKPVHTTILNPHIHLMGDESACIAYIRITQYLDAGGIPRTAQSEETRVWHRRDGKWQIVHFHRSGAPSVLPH

Row | SMILES | degradation of IκBα (IκBα) | production of IL-2 (EL-4 cells) | Inhibition rate (%) (CaMKIIα derived from rat; Concentration 0.1 μm) | Inhibition rate (%) (CaMKIIα derived from rat; Concentration 1 μm) | Inhibition rate (%) (CaMKIIα derived from rat; Concentration 10 μm) | formation of osteoclasts (osteoclasts) | production of IL-6 (J774A.1 cells)
1 | COc1ccc(S(=O)(=O)N(CCO)c2ccccc2CN(C)C/C=C/c2ccc(Cl)cc2)cc1 [KN-93, N-(2-[N-[4-chlorocinnamyl]-N-methylaminomethyl]phenyl)-N-(2-hydroxyethyl)-4-methoxybenzenesulfonamide, reference compound] | suppressed the degradation of IκBα | suppressed production of IL-2 dose-dependently | 25 | 58 | 77 | dose-dependently suppressed the formation of osteoclasts | suppressed production of IL-6 dose-dependently
2 | C[C@@H](c1ccc(-c2ccccc2)c(F)c1)c1cc(/N=C(/N)N2CCOCC2)on1 [Compound (I), 3-[(1S)-1-(2-fluorobiphenyl-4-yl)ethyl]-5-{[amino(morpholin-4-yl)methylene]amino}isoxazole] | suppressed the degradation of IκBα | suppressed production of IL-2 dose-dependently | 39 | 47 | 85 | dose-dependently suppressed the formation of osteoclasts | suppressed production of IL-6 dose-dependently
